Laboratory results from US12595269B2, “Morpholine-like monoamine releasers” (Solvonis Therapeutics Ireland Holdings Limited, priority 2022, dated 2026).
Where two headings read alike, the source gives them in different places.

Legend:
[1] = target: T1, SERT (serotonin release) (Rattus norvegicus, UniProt P31652); experiment: Serotonin release filtration assay in rat cortex synaptosomes; assay type: cell-based
T1 construct: from tissue; host or cells: rat frontal cortex, crude synaptosomes
Procedure: Methods and Procedure—Release: The potency of the disclosed compounds for stimulating dopamine (DA) release was measured by an endpoint release filtration assay in a 96-well format using rat synaptosomes, essentially as described by Sandtner et al., Mol. Pharmacol., 2016; 89(1):165-75, and Baumann et al., Neuropsychopharmacol., 2013; 38:552-562, with some variations.
One male rat was sacrificed and striatum/cortex regions were dissected over ice. The striatum portions were weighed and put in a glass tube for homogenization, containing ice-cold 0.32 M sucrose (dilution 1:24 w/v), while the frontal cortex tissue was diluted in ice-cold 0.32 M sucrose, 1:20 w/v. Tissues were homogenized and centrifuged for 10 mins at 1000×g. The two supernatants from striatum and cortex (crude synaptosomes) were retained on ice until use.
Test compounds were then serially diluted 1:4 in neat DMSO as concentration-response curves (CRC) of 11 points. To each well of a 2-mL 96 deep-well plate (Whatman UNIPLATE 96 well) were added: 2 μL of CRC of test compounds or 2 μL of DMSO (no-release condition) or 2 μL of MDMA 10 mM solution (final 50 μM, for maximal release), followed by 200 μL/well of complete Krebs-phosphate buffer (126 mM NaCl, 2.4 mM KCl, 0.83 mM CaCl2, 0.8 mM MgCl2, 0.5 mM KH2PO4, 0.5 mM Na2SO4, 11.1 mM Glucose, 0.05 mM pargyline, 1 mg/mL ascorbic acid, freshly added, pH 7.4), containing 1 μM reserpine to block vesicular uptake of substrate. Desipramine (100 nM) and citalopram (100 nM) were also added to the release assay buffer in order to inhibit NET and SERT uptake, respectively. The final compound dilution, then, was 1:200 in 0.5% DMSO.
The raw data (cpm) from residual radioactivity onto the filter were elaborated for the determination of pEC50/EC50 values. Specifically, the compound effect was expressed as the percent of maximal release obtained with 50 μM MDMA (100% release) in comparison to vehicle (0.5% DMSO, 0% release). Both MDMA and D-amphetamine in CRC were used as internal controls in each release experiment. In each plate, for both 0% and 100% of release, the signal window is monitored performing Z′ calculations using raw data of four replicates.
Synaptosomes were then loaded with ^3H-5HT for 60 minutes at RT. After dispensing loaded synaptosomes onto a compound plate (200 μL/well), the release reaction proceeded for an additional 15 minutes. Stop by filtration, counting, and data elaboration were performed as described for DA release.

[2] = Plasma protein binding by equilibrium dialysis, rat plasma; assay type: in vitro ADME, Sprague Dawley (SD) rats; details: male, Sprague Dawley, pH 7.4
Procedure: Methods and Procedure: This study was performed in agreement with the previously described procedures to assure data integrity and adherence to GLP standards. Plasma protein binding and blood tissue binding of test items (0.5 μM) was determined using biological samples from male Sprague Dawley (SD) rats and humans. […] Dexamethasone was used as a control for lung tissue binding. Various biological samples were spiked with test compounds according to the methods that follow.
Preparation of plasma or blood samples: An appropriate amount of test compound was dissolved in DMSO to yield a 10 mM solution. Further dilutions, to obtain 50 μM working solutions (WS), were then prepared using 50% acetonitrile in Milli-Q water. These 100×WS were used to spike plasma or blood to obtain a final concentration of 0.5 μM. From this initial spiking solution, control samples (n=3), referred to as T=0, were immediately extracted and used to calculate the recovery of the test item.
An equilibrium dialysis method was performed to determine protein binding in the various biological samples described herein. Materials were prepared and methods were in accordance with the following procedures. […]
Dialysis buffer was prepared by dissolving Na2HPO4 8.69 g, KH2PO4 1.90 g, and NaCl 4.11 g in 1 L of MilliQ water, and adjusting the pH to 7.4 with H3PO4. […] In order to control the integrity of the membrane after the dialysis process, the presence of protein was assessed in the buffer compartment. […]
Samples were analyzed in a LC-MS/MS system using an analytical method to monitor the compound to internal standard peak area ratios as representative of the compound concentrations. Alternatively, samples were analyzed by RapidFire.
Protein binding in plasma, blood, brain, and lung tissue samples were determined with the following formula: Afu=Buffer/x, wherein “x” may be plasma, blood, brain, or lung, and “Afu” is the apparent fraction unbound, and the other variables refer to the analyte/internal standard ratio determined in their specific compartment (buffer, plasma, blood, brain homogenate, and lung homogenate); […]

[3] = rat cortex synaptosomes, % of release by 50 μM MDMA, read-out: SERT release pEC50 (converted)

T1 sequence (P31652 whole entry): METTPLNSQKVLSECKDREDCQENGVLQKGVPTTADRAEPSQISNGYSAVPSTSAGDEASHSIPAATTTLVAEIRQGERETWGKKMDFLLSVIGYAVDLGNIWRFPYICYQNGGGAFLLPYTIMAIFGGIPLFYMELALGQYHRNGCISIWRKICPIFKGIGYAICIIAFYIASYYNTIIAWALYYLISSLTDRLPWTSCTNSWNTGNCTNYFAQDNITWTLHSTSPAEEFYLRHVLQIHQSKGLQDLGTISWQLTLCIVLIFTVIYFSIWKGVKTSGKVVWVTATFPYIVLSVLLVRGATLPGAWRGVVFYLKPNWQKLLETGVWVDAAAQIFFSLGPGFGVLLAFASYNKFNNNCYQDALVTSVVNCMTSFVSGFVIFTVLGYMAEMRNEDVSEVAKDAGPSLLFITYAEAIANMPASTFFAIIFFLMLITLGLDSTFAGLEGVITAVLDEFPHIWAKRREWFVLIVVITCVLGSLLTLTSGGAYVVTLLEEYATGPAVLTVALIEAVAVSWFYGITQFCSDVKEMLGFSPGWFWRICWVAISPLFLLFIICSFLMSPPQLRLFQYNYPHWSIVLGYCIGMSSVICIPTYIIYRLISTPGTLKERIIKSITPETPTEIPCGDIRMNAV

Compound | EC50 [1, 3] [nM] | fraction unbound at 5 h, 0.5 µM [2] | EC50 ([1]; serotonin release, read-out: EC50 to influence SER release) [nM]
Clc1ccc([C@]23CN[C@H](CO2)C3)cc1Cl (single isomer, unassigned) [516A] | 18.2 | – | –
Clc1ccc([C@@]23CN[C@@H](CO2)C3)cc1Cl (single isomer, unassigned) [518A] | 17 | 0.106 | –
Clc1ccc(C23CNC(CO2)C3)cc1Cl (stereo not shown) [522A, 1-(3,4-dichlorophenyl)-2-oxa-5-azabicyclo[2.2.1]heptane] | 19.1 | 0.12 | 22
CNC(C)Cc1ccc2c(c1)OCO2 (stereo not shown) [MDMA, reference compound] | – | > 0.5 | –
